Patent US7858621B2 (Amorepacific Corporation, priority 2006, dated 2010)

target: T1, vanilloid receptor (Rattus norvegicus, UniProt O35433); assay: 45Ca influx test in cultured neonatal rat DRG neurons, inhibition of capsaicin response; format: cell-based; settings: Table 3; unit inferred; read-out: IC50
T1 construct: DRG nerve cells from the primary culture of 2 days were equilibrated; endogenous in cells; host or cells: primary culture of dorsal root ganglion neurons from neonatal SD rats
Summary of the method: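 45Ca influx measured by scintillation counting of SDS-eluted neurons after 10 min at room temperature with test compound, 0.5 μM capsaicin (final) and 10 μCi/ml 45Ca in Ca/Mg-free HEPES-HBSS pH 7.4. Cells: primary DRG neurons from newborn SD rats, cultured 2 days with NGF and Ara-C.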

T1 sequence (O35433 whole entry): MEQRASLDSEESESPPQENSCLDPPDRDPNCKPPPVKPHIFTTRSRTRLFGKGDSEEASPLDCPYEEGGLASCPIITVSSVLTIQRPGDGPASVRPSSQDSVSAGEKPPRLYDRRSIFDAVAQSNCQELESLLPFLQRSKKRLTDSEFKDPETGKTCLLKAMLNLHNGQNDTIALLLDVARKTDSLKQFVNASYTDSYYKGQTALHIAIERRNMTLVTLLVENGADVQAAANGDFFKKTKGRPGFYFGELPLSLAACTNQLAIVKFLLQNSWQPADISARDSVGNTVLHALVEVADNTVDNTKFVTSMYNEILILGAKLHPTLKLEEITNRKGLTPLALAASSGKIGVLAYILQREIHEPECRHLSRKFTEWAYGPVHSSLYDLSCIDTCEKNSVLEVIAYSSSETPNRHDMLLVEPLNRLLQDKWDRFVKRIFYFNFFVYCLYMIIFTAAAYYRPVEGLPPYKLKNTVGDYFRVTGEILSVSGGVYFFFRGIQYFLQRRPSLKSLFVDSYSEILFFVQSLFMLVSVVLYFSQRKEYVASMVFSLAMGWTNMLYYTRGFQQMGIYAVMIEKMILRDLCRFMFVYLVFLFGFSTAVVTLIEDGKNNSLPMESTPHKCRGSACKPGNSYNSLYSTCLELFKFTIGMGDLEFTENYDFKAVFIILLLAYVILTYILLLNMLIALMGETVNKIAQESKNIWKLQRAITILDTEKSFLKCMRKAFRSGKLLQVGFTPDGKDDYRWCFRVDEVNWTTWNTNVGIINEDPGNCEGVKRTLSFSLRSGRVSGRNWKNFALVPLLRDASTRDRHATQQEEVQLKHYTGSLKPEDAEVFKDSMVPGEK

IC50 | SMILES
47 nM | C=Cc1cc(CNC(=O)/C=C/c2ccc(C(C)(C)C)cc2)cc(F)c1NS(C)(=O)=O [Examples 16]
> 10000 nM | C#Cc1cc(CNC(=O)/C=C/c2ccc(C(F)(F)F)nc2)cc(F)c1NS(C)(=O)=O [Example 57, N-(3-Ethynyl-5-fluoro-4-methanesulfonylamino-benzyl)-3-(6-trifluoromethyl-pyridin-3-yl)-acrylamide]
860 nM | C#Cc1cc(CNC(=O)/C=C/c2ccc(C(C)(C)C)cc2N2CCOCC2)cc(F)c1NS(C)(=O)=O [drawing 350, reference compound]

same assay, conditions: neonatal rat DRG neurons, capsaicin 0.5 μM, 45Ca influx; read-out: Antagonist Calcium Uptake Test (IC50)

SMILES | IC50
C#Cc1cc(CNC(=O)/C=C/c2ccc(C(F)(F)F)nc2)cc(F)c1NS(C)(=O)=O [Example 57, N-(3-Ethynyl-5-fluoro-4-methanesulfonylamino-benzyl)-3-(6-trifluoromethyl-pyridin-3-yl)-acrylamide] | > 10000 nM
C[C@@H](NC(=O)/C=C/c1ccc(C(F)(F)F)nc1CCc1ccccc1)c1ccc(NS(C)(=O)=O)c(F)c1 [Example 237, (R)—N-[1-(3-Fluoro-4-methanesulfonylamino-phenyl)-ethyl]-3-(2-phenethyl-6-trifluoromethyl-pyridin-3-yl)-acrylamide] | 96 nM
Cc1cc(CNC(=O)/C=C/c2ccc(C(F)(F)F)nc2CCc2ccccc2)cc(F)c1NS(C)(=O)=O [Example 173, N-(3-Fluoro-4-methanesulfonylamino-5-methyl-benzyl)-3-(2-phenethyl-6-trifluoromethyl-pyridin-3-yl)-acrylamide] | 200 nM
CCCCc1nc(C(F)(F)F)ccc1C#CC(=O)N[C@H](C)c1ccc(NS(C)(=O)=O)c(F)c1 [Example 274, 3-(2-Butyl-6-trifluoromethyl-pyridin-3-yl)-propynoic acid [1-(3-fluoro-4-methane sulfonylamino-phenyl)-ethyl]-amide] | 1200 nM
CS(=O)(=O)Nc1ccc(CNC(=O)/C=C/c2ccc(C(F)(F)F)nc2N2CCCC2)cc1F [Example 55, N-(3-Fluoro-4-methanesulfonylamino-benzyl)-3-(2-pyrrolidin-1-yl-6-trifluoromethyl-pyridin-3-yl)-acrylamide] | 1400 nM
COCCCc1nc(C(F)(F)F)ccc1/C=C/C(=O)NCc1ccc(NS(C)(=O)=O)c(F)c1 [Example 156, N-(3-Fluoro-4-methanesulfonylamino-benzyl)-3-[2-(3-methoxy-propyl)-6-trifluoromethyl-pyridin-3-yl]-acrylamide] | 2200 nM
C=Cc1cc(CNC(=O)/C=C/c2ccc(C(C)(C)C)nc2)cc(F)c1NS(C)(=O)=O [Example 10, 3-(6-tert-Butyl-pyridin-3-yl)-N-(3-fluoro-4-methanesulfonylamino-5-vinyl-benzyl)-acrylamide] | 280 nM
CCCCNc1nc(C(F)(F)F)ccc1/C=C/C(=O)N[C@@H](C)c1cc(F)c(NS(C)(=O)=O)c(F)c1 [Example 240, (S)-3-(2-Butylamino-6-trifluoromethyl-pyridin-3-yl)-N-[(1S)-(3,5-difluoro-4-methanesulfonylamino-phenyl)-ethyl]-acrylamide] | 200 nM
CS(=O)(=O)Nc1c(F)cc(CNC(=O)/C=C/c2ccc(C(F)(F)F)nc2N2CCCCC2)cc1F [Example 200, N-(4-Methanesulfonylamino-3,5-difluoro-benzyl)-3-(2-piperid-1-yl-6-trifluoromethyl-pyridin-3-yl)-acrylamide] | 580 nM
Cc1cc(CNC(=O)/C=C/c2ccc(C(F)(F)F)nc2NC(C)C)ccc1NS(C)(=O)=O [Example 219, 3-(2-Isopropylamino-6-trifluoromethyl-pyridin-3-yl)-N-(4-methanesulfonylamino-3-methyl-benzyl)-acrylamide] | 73 nM
C#Cc1cc(CNC(=O)/C=C/c2cnc(OC)cc2C(F)(F)F)cc(F)c1NS(C)(=O)=O [Example 41, N-(3-Ethynyl-5-fluoro-4-methanesulfonylaminobenzyl)-3-(6-methoxy-4-trifluoromethylpyridin-3-yl)acrylamide] | 1600 nM
CCC(C)Nc1nc(C(F)(F)F)ccc1/C=C/C(=O)NCc1ccc(NS(C)(=O)=O)c(C)c1 (centres unmarked) [Example 176, 3-(2-sec-Butylamino-6-trifluoromethyl-pyridin-3-yl)-N-(4-methanesulfonylamino-3-methyl-benzyl)-acrylamide] | 57 nM
C#Cc1cc(CNC(=O)/C=C/c2ccc(C(F)(F)F)nc2-c2cccnc2)cc(F)c1NS(C)(=O)=O [Example 126, N-(3-Ethynyl-5-fluoro-4-methanesulfonylamino-benzyl)-3-(2-pyridin-3-yl-6-trifluoromethyl-pyridin-3-yl)-acrylamide] | 4900 nM

More lines, now with the values ahead:

IC50 | SMILES
40 nM | C#Cc1cc(CNC(=O)/C=C/c2ccc(C(F)(F)F)nc2CCC)cc(F)c1NS(C)(=O)=O [Example 206, N-(3-Ethynyl-5-fluoro-4-methanesulfonylamino-benzyl)-3-(2-propyl-6-trifluoromethyl-pyridin-3-yl)-acrylamide]
13 nM | CCNc1nc(C(F)(F)F)ccc1/C=C/C(=O)NCc1ccc(NS(C)(=O)=O)c(C)c1 [Example 247, N-(4-methanesulfonylamino-3-methyl-benzyl)-3-(2-ethylamino-6-trifluoromethyl)-pyridin-3-yl-acrylamide]
70 nM | Cc1cc(CNC(=O)/C=C/c2ccc(C(F)(F)F)nc2CC(C)C)ccc1NS(C)(=O)=O [Example 174, 3-(2-Isobutyl-6-trifluoromethyl-pyridin-3-yl)-N-(4-methanesulfonylamino-3-methyl-benzyl)-acrylamide]
93 nM | CCC(C)Nc1nc(C(F)(F)F)ccc1/C=C/C(=O)NCc1ccc(NS(C)(=O)=O)c(F)c1 (centres unmarked) [Example 123, 3-(2-sec-Butylamino-6-trifluoromethyl-pyridin-3-yl)-N-(3-fluoro-4-methanesulfonylamino-benzyl)-acrylamide]
740 nM | CC(C)Oc1nc(C(F)(F)F)ccc1/C=C/C(=O)NCc1ccc(NS(C)(=O)=O)c(F)c1 [Example 108, N-(3-Fluoro-4-methanesulfonylamino-benzyl)-3-(2-isopropoxy-6-trifluoromethyl-pyridin-3-yl)-acrylamide]
41 nM | CCC(C)c1nc(C(F)(F)F)ccc1/C=C/C(=O)N[C@H](C)c1ccc(NS(C)(=O)=O)c(F)c1 (stereo partly drawn) [Example 243, (R)-3-(2-sec-Butyl-6-trifluoromethyl-pyridin-3-yl)-N-[1-(3-fluoro-4-methanesulfonylamino-phenyl)-ethyl]-acrylamide]
120 nM | CCCNc1nc(C(F)(F)F)ccc1/C=C/C(=O)NCc1cc(F)c(NS(C)(=O)=O)cc1F [Example 248, N-(2,5-Difluoro-4-methanesulfonylamino-benzyl)-3-(2-propylamino-6-trifluoromethyl-pyridin-3-yl)-acrylamide]
76 nM | CC(C)Nc1nc(C(F)(F)F)ccc1/C=C/C(=O)NCc1cc(F)c(NS(C)(=O)=O)c(C#N)c1 [Example 122, N-(3-Cyano-5-fluoro-4-methanesulfonylamino-benzyl)-3-(2-isopropylamino-6-trifluoromethyl-pyridin-3-yl)-acrylamide]
23 nM | C#Cc1cc(CNC(=O)/C=C/c2ccc(C(F)(F)F)nc2NCCC)cc(F)c1NS(C)(=O)=O [Example 221, N-(3-Ethynyl-5-fluoro-4-methanesulfonylamino-benzyl)-3-(2-propylamino-6-trifluoromethyl-pyridin-3-yl)-acrylamide]
1400 nM | CS(=O)(=O)Nc1ccc(CNC(=O)/C=C/c2ccc(C(F)(F)F)nc2OCc2ccccc2)cc1F [Example 112, 3-(2-Benzyloxy-6-trifluoromethyl-pyridin-3-yl)-N-(3-fluoro-4-methanesulfonylamino-benzyl)-acrylamide]
1400 nM | CCCCc1nc(C(F)(F)F)ccc1C#CC(=O)NCc1ccc(NS(C)(=O)=O)cc1 [Example 266, 3-(2-Butyl-6-trifluoromethyl-pyridin-3-yl)-propynoic acid 4-methanesulfonylamino-benzylamide]
> 10000 nM | CC(C)Nc1nc(C(F)(F)F)ccc1/C=C/C(=O)NCc1ccc(NS(=O)(=O)C(F)(F)F)cc1 [Example 270, 3-(2-Isopropylamino-6-trifluoromethyl-pyridin-3-yl)-N-(4-trifluoromethanesulfonylamino-benzyl)-acrylamide]
170 nM | COCCNc1nc(C(F)(F)F)ccc1/C=C/C(=O)NCc1cc(F)c(NS(C)(=O)=O)c(F)c1 [Example 204, N-(3,5-Difluoro-4-methanesulfonylamino-benzyl)-3-[2-(2-methoxy-ethylamino)-6-trifluoromethyl-pyridin-3-yl]-acrylamide]

system: not listed separately; assay: PK study in rats, single oral administration; format: in vivo; design: AUC: concentration or dose not given beside the values; settings: rat, plasma
Experimental: Pharmacokinetics of compounds in rats were analyzed using the following experiment. Rats were fasted overnight prior to administration and until approximately 4 hours after administration. Rats were given a single oral administration of compound at same dose. Administration volume was 10 ml/kg. Blood samples were collected from the retro-orbital sinus at various times over the following 7 hrs. Immediately after each collection, plasmas were separated from blood cells by centrifugation and stored at −20° C. until the analysis was performed. The plasma samples were analyzed using a reverse phase high-performance chromatography (HPLC) method.

SMILES | Cmax | AUC | Tmax | half-life
C=Cc1cc(CNC(=O)/C=C/c2ccc(C(C)(C)C)cc2)cc(F)c1NS(C)(=O)=O [Examples 16] | < 100 ng/mL |  |  | 
C#Cc1cc(CNC(=O)/C=C/c2ccc(C(F)(F)F)nc2)cc(F)c1NS(C)(=O)=O [Example 57, N-(3-Ethynyl-5-fluoro-4-methanesulfonylamino-benzyl)-3-(6-trifluoromethyl-pyridin-3-yl)-acrylamide] | 2200 ng/mL | 56500 ng·h/mL | 0.833 h | 3.95 h
C#Cc1cc(CNC(=O)/C=C/c2ccc(C(C)(C)C)cc2N2CCOCC2)cc(F)c1NS(C)(=O)=O [drawing 350, reference compound] | 334 ng/mL | 706 ng·h/mL | 2 h | 0.932 h
C=Cc1cc(CNC(=O)/C=C/c2ccc(C(C)(C)C)cc2NC(C)C)cc(F)c1NS(C)(=O)=O [Examples 34] | < 100 ng/mL |  |  | 

The remaining lines, values ahead:

Cmax | AUC | Tmax | half-life | SMILES
5500 ng/mL | 25900 ng·h/mL | 3.5 h | 1.42 h | C#Cc1cc(CNC(=O)/C=C/c2ccc(C(F)(F)F)nc2CCC)cc(F)c1NS(C)(=O)=O [Example 206, N-(3-Ethynyl-5-fluoro-4-methanesulfonylamino-benzyl)-3-(2-propyl-6-trifluoromethyl-pyridin-3-yl)-acrylamide]
< 100 ng/mL |  |  |  | C=Cc1cc(CNC(=O)/C=C/c2ccc(C(C)(C)C)cc2N2CCOCC2)cc(F)c1NS(C)(=O)=O [Examples 22]
